Laboratory results as given in patent US20090011400A1, “Substrate switched ammonia lyases and mutases” (The Salk Institute for Biological Studies and The Regents …, priority 2006, published 2009).
Residue numbers refer to the chain shown, from its start. Numbers in names are those of the source.

Columns and labels:
SmPAL = conditions: substrate L-Phe, read-out: AIP Ki; cited from earlier work
[1] = target: T1, Rhodobacter sphaeroides tyrosine ammonia lyase (RsTAL) variant H89F (His89Phe) (Cereibacter sphaeroides, UniProt Q3IWB0, H89F); experiment: Inhibition of PAL activity of H89F RsTAL by AIP; assay type: biochemical; design: mutant proteins were expressed and purified as described for wild type RsTAL; octahistidine (His8), thrombin-cleavable (N, cleaved yes); made in house; host or cells: E. coli BL21(DE3)
T1 sequence (Q3IWB0 1-523 H89F): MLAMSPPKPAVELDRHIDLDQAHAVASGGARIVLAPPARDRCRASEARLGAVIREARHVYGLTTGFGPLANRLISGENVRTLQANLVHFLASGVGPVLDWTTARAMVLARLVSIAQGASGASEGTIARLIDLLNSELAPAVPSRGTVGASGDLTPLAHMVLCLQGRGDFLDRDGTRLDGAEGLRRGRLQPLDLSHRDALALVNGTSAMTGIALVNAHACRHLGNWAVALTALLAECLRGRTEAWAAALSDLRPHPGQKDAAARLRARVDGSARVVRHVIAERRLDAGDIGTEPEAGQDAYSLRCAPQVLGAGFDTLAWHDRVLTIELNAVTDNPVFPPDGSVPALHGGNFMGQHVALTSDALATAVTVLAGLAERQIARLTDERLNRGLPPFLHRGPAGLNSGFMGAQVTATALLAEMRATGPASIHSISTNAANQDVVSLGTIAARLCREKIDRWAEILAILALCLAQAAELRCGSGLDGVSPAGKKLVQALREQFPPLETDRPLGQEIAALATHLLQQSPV
Experimental: (§1) The inhibition of enzyme activity by AIP was measured with a similar assay system, except that the enzyme was pre-incubated for 7 min in the presence of fixed concentrations of AIP. Inhibition of PAL activity of wild type RsTAL was measured with 15 μg protein, six AIP concentrations between 0 and 20 μM, and initial L-Phe concentrations between 9.6 and 25.6 mM. Inhibition of PAL activity of the H89F mutant was measured with 10 μg protein, five AIP concentrations between 0 and 5 μM, with initial L-Phe concentrations between 0.4 and 1.6 mM. Duplicate sets of enzyme assays were performed and a Dixon plot was used for the estimation of the AIP inhibition constant, Ki. AIP was a gift from Dr. Jerzy Zon, Wroclaw University, Poland.

PcPAL = PcPAL (Petroselinum crispum, UniProt P24481); conditions: substrate L-Phe, read-out: AIP Ki; cited from earlier work
wild type RsTAL = target: T2, wild type RsTAL (Cereibacter sphaeroides, UniProt Q3IWB0); experiment: Inhibition of enzyme activity by AIP, wild type RsTAL; assay type: biochemical, Rhodobacter sphaeroides
T2 construct: only residues 1 to 7 and the C-terminal residue 523 of each of the eight RsTAL monomers are poorly ordered; His8 (octahistidine), thrombin-cleavable (N, cleaved yes); made in house; host or cells: E. coli BL21(DE3)
T2 sequence (Q3IWB0 1-523): T1 sequence (Q3IWB0 1-523 H89F) with F89H
Experimental: as §1

RsTAL = target: T3, RsTAL (Cereibacter sphaeroides, UniProt Q3IWB0); experiment: Crystal soaking experiments of RsTAL with ligands; assay type: binding, Rhodobacter sphaeroides; conditions: wild type RsTAL crystals soaked with ligand
T3 construct: His8 (octahistidine), thrombin-cleavable (N, cleaved yes); made in house; host or cells: E. coli BL21(DE3)
T3 sequence (Q3IWB0 1-523): T1 sequence (Q3IWB0 1-523 H89F) with F89H
Experimental: Monoclinic crystals of RsTAL (space group […]) were grown from a 1:1 mixture of protein solution (20 mg/ml in 12.5 mM Tris-HCl, pH 7.5, 50 mM NaCl) and a reservoir solution (0.1 M MOPSO—Na^+, pH 7.0, 7% (w/v) polyethylene glycol 8000, 0.3 M ammonium acetate, 2 mM dithiothreitol, 35 mM cyclohexylbutanoyl-N-hydroxyethylglucamide) using vapor diffusion against reservoir solutions at 4° C. Crystal growth typically occurred over a period of one to three weeks and was expedited through microseeding. […] Crystals of RsTAL in complex with small molecule ligands were produced by soaking crystals for 24-48 hrs in reservoir solutions supplemented with 10-20 mM coumaric acid, caffeic acid, cinnamic acid or AIP.

H89F RsTAL = target: T4, H89F RsTAL (Cereibacter sphaeroides, UniProt Q3IWB0, H89F); experiment: Inhibition of PAL activity by AIP, H89F RsTAL; assay type: biochemical, Rhodobacter sphaeroides
T4 construct: mutant proteins were expressed and purified as described for wild type RsTAL; His8 (octahistidine), thrombin-cleavable (N, cleaved yes); made in house; host or cells: E. coli BL21(DE3)
T4 sequence (Q3IWB0 1-523 H89F): T1 sequence (Q3IWB0 1-523 H89F)
Experimental: as §1

[2] = target: T5, Rhodobacter sphaeroides tyrosine ammonia lyase (RsTAL), wild type (Cereibacter sphaeroides, UniProt Q3IWB0); experiment: Ammonia lyase steady-state kinetics, wild type RsTAL; assay type: biochemical; conditions: wt RsTAL
T5 construct: octahistidine (His8), thrombin-cleavable (N, cleaved yes); made in house; host or cells: E. coli BL21(DE3)
T5 sequence (Q3IWB0 1-523): T1 sequence (Q3IWB0 1-523 H89F) with F89H
Experimental: (§2) TAL activity was measured spectrophotometrically by monitoring the formation of a conjugated aryl-acid product. The conversion of L-Tyr to p-coumarate was followed at 310 nm and L-Phe to cinnamate at 280 nm. The assay mixture (total volume 0.5 ml) contained 0.1 M Tris HCl (pH 8.5), and for each fixed amount of TAL, eight different initial concentrations of amino acid substrate. After pre-incubation of the enzyme at 37° C. for 2 min, reactions were initiated by the addition of substrate, and formation of product was monitored for 5 min. For wild type RsTAL, activity was assayed with 7.5 μg protein and initial L-Tyr concentrations between 0.01 and 2.4 mM, and PAL activity was assayed with 30 μg protein and initial L-Phe concentrations between 3.2 and 51.2 mM. For the RsTAL H89F mutant, PAL activity was assayed with 10 μg protein and initial L-Phe concentrations between 0.05 and 5.2 mM. Each series of assays were performed in triplicate, and a Hanes plot was used for the estimation of steady-state kinetic constants.

[3] = tested on: PcPAL (Petroselinum crispum phenylalanine ammonia lyase); conditions: cited from earlier work
[4] = target: T1, Rhodobacter sphaeroides tyrosine ammonia lyase (RsTAL) variant H89F (His89Phe); experiment: Ammonia lyase steady-state kinetics, H89F RsTAL
Experimental: (§3) TAL activity was measured spectrophotometrically by monitoring the formation of a conjugated aryl-acid product. The conversion of L-Tyr to p-coumarate was followed at 310 nm and L-Phe to cinnamate at 280 nm. The assay mixture (total volume 0.5 ml) contained 0.1 M Tris HCl (pH 8.5), and for each fixed amount of TAL, eight different initial concentrations of amino acid substrate. After pre-incubation of the enzyme at 37° C. for 2 min, reactions were initiated by the addition of substrate, and formation of product was monitored for 5 min. […] For the RsTAL H89F mutant, PAL activity was assayed with 10 μg protein and initial L-Phe concentrations between 0.05 and 5.2 mM. Each series of assays were performed in triplicate, and a Hanes plot was used for the estimation of steady-state kinetic constants.

[5] = tested on: SeTAL (Saccharothrix espanaensis tyrosine ammonia lyase); conditions: cited from earlier work
[6] = tested on: PlPAL (Photorhabdus luminescens phenylalanine ammonia lyase); conditions: cited from earlier work
[7] = tested on: RcTAL (Rhodobacter capsulatus tyrosine ammonia lyase); conditions: cited from earlier work
[8] = tested on: SmPAL (Streptomyces maritimus phenylalanine ammonia lyase); conditions: cited from earlier work
[9] = tested on: ZmPAL (Z. mays phenylalanine ammonia lyase); conditions: cited from earlier work
[10] = substrate: N[C@@H](Cc1ccccc1)C(=O)O; experiment: purified protein, by the assay type; conditions: other: H89F RsTAL, pH 8.5, 37° C.
Experimental: as §3

[11] = substrate: N[C@@H](Cc1ccc(O)cc1)C(=O)O; experiment: Ammonia lyase steady-state kinetics, wild type RsTAL; assay type: biochemical, Rhodobacter sphaeroides; conditions: other: wt RsTAL, pH 8.5, 37° C.
Experimental: as §2

[12] = substrate: N[C@@H](Cc1ccccc1)C(=O)O; experiment: as above; assay type: biochemical, Rhodobacter sphaeroides; conditions: other: wt RsTAL, pH 8.5, 37° C.
Experimental: as §2

[13] = PAL activity: spectrophotometric steady-state kinetics, L-Phe to cinnamate; assay type: biochemical; conditions: substrate L-Phe
Experimental: as §2

In the case of `NC1(P(=O)(O)O)Cc2ccccc2C1` [AIP, 2-aminoindan-2-phosphonate], the Ki (SmPAL) is listed as 1810 nM, the Ki [1] is listed as 600 nM and the Ki (PcPAL) is listed as 25 nM. For the same molecule, the “inhibition of RsTAL activity by AIP (in words)” value (wild type RsTAL; wild type RsTAL) was “weak inhibition”, the “effect of AIP on activity with L-Tyr (in words)” value (wild type RsTAL; wild type RsTAL, substrate L-Tyr) was “unaffected” and the Ki (wild type RsTAL; wt RsTAL, substrate L-Phe, Dixon plot) was 16300 nM. The “binding observed in RsTAL crystals (in words)” value (RsTAL) was “no significant binding”, the Ki (H89F RsTAL; H89F RsTAL, substrate L-Phe, Dixon plot) was 600 nM and the “Ki lower than for wild type RsTAL” value (H89F RsTAL; H89F mutant with L-Phe versus wild type RsTAL) was 27 fold.

With `N[C@@H](Cc1ccc(O)c(O)c1)C(=O)O` [L-DOPA, L-3,4-dihydroxyphenylalanine] the “activity with L-DOPA” value ([2]; deamination) was “significant activity”.

For `N[C@@H](Cc1ccccc1)C(=O)O` [L-Phe], the Km [3] is given as 17.2 µM, the kcat [3] is given as 22 s⁻¹ and the kcat ([4]; pH 8.5, 37° C.) is given as 8.15 s⁻¹. For the same molecule, the Km [5] was 2860 µM, the kcat [5] was 0.0038 s⁻¹ and the Km [6] was 320 µM. For the same molecule, the kcat [6] was 0.8 s⁻¹, the Km [7] was 1280 µM and the kcat [7] was 15.1 s⁻¹. For the same molecule, the Km [8] was 23 µM, the kcat [8] was 0.0048 s⁻¹ and the Km [9] was 270 µM. For the same molecule, the kcat [9] was 10 s⁻¹.

For `N[C@@H](Cc1ccc(O)cc1)C(=O)O` [L-Tyr], the Km [3] is given as 2500 µM, the kcat [3] is given as 0.3 s⁻¹ and the “activity with L-Tyr” value [4] is given as “lacks activity”. The “Km better for L-Tyr as compared to L-Phe” value ([2]; L-Tyr vs L-Phe) was 150 fold, the kcat ([2]; pH 8.5, 37° C.) was 4.32 s⁻¹ and the Km [5] was 15.5 µM. For the same molecule, the kcat [5] was 0.015 s⁻¹, the Km [7] was 15.6 µM and the kcat [7] was 27.7 s⁻¹. The Km [9] was 19 µM and the kcat [9] was 0.9 s⁻¹.

For `O=C(O)C=Cc1ccccc1` [cinnamic acid], the “binding observed in RsTAL crystals (in words)” value (RsTAL) was “no significant binding”.

B1: Rhodobacter sphaeroides tyrosine ammonia lyase (RsTAL) variant H89F (His89Phe) (Cereibacter sphaeroides 2.4.1; H89F) (protein)
chain: T1 sequence (Q3IWB0 1-523 H89F)
With B1 the Km [10] was 434 µM.

B2: Rhodobacter sphaeroides tyrosine ammonia lyase (RsTAL), wild type (Cereibacter sphaeroides 2.4.1) (protein)
chain: T1 sequence (Q3IWB0 1-523 H89F) with F89H
notes: octahistidine (His8), thrombin-cleavable (N, cleaved yes); made in house; host or cells: E. coli BL21(DE3)
For B2, the Km [11] was 74.2 µM, the Km [12] was 11400 µM and the kcat [12] was 13.1 s⁻¹. For the same molecule, the kcat/Km [12] was 1100 M⁻¹ s⁻¹.

B3: H89F RsTAL: engineered RsTAL variant with the single amino acid substitution H89F (His 89 replaced by Phe) (protein)
chain: T1 sequence (Q3IWB0 1-523 H89F)
modifications: H89F mutant of Rhodobacter sphaeroides tyrosine ammonia lyase
For B3, the “increase in kcat/Km in comparison to wild type RsTAL” value [13] was 17 fold.
